Measured values taken from PubChem BioAssay (NCI).
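A five-concentration, 48-hour dose response in 96-well plates underlies each endpoint, interpolated linearly between surrounding concentrations. TGI: concentration producing complete growth inhibition.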

Legend:
Assay in all cases: NCI-60 cell line screen, 48 h
TK-10 renal = test system: TK-10 renal
SN12C renal = test system: SN12C renal
MCF7 breast = test system: MCF7 breast
OVCAR-3 ovarian = test system: OVCAR-3 ovarian
HT29 colon = test system: HT29 colon
M14 melanoma = test system: M14 melanoma
IGROV1 ovarian = test system: IGROV1 ovarian
NCI/ADR-RES ovarian = test system: NCI/ADR-RES ovarian
U251 CNS = test system: U251 CNS
SK-MEL-2 melanoma = test system: SK-MEL-2 melanoma

CC(=O)O[C@H]1C[C@H]2C(=S)Nc3ccccc3C(=S)N2C1 was tested, and the TGI (TK-10 renal) was over 100 µM, the TGI (SN12C renal) was over 100 µM and the TGI (MCF7 breast) was over 100 µM. For the same compound, the TGI (OVCAR-3 ovarian) was over 100 µM, the TGI (HT29 colon) was over 100 µM and the TGI (M14 melanoma) was over 100 µM. The TGI (IGROV1 ovarian) was over 100 µM, the TGI (NCI/ADR-RES ovarian) was over 100 µM and the TGI (U251 CNS) was over 100 µM. For the same compound, the TGI (SK-MEL-2 melanoma) was over 100 µM.

Compound CC(NC(=O)C(N)CC(=O)O)NC(=O)N(C)C(C)(C)C (stereo not given) has a TGI (TK-10 renal) of over 100 µM, a TGI (SN12C renal) of over 100 µM and a TGI (MCF7 breast) of over 100 µM. The TGI (OVCAR-3 ovarian) was over 100 µM, the TGI (HT29 colon) was over 100 µM and the TGI (M14 melanoma) was over 100 µM. The TGI (IGROV1 ovarian) was over 100 µM, the TGI (NCI/ADR-RES ovarian) was over 100 µM and the TGI (U251 CNS) was over 100 µM. The TGI (SK-MEL-2 melanoma) was over 100 µM.

Clc1ncc(Cl)c(Cl)n1 gave a TGI (TK-10 renal) of 23.1 µM, a TGI (SN12C renal) of 5.91 µM and a TGI (MCF7 breast) of 4.8 µM. For the same compound, the TGI (OVCAR-3 ovarian) was 14.3 µM, the TGI (HT29 colon) was 3.02 µM and the TGI (M14 melanoma) was 10.6 µM. For the same compound, the TGI (IGROV1 ovarian) was 23.3 µM, the TGI (NCI/ADR-RES ovarian) was 20.5 µM and the TGI (U251 CNS) was 11.2 µM. For the same compound, the TGI (SK-MEL-2 melanoma) was 6.08 µM.

For O=[N+]([O-])c1ccc2c(c1)c(S(=O)(=O)O)cc1nonc12, the TGI (TK-10 renal) was over 100 µM, the TGI (SN12C renal) was over 100 µM and the TGI (MCF7 breast) was over 100 µM. For the same compound, the TGI (OVCAR-3 ovarian) was over 100 µM, the TGI (HT29 colon) was over 100 µM and the TGI (M14 melanoma) was over 100 µM. For the same compound, the TGI (IGROV1 ovarian) was over 100 µM, the TGI (NCI/ADR-RES ovarian) was over 100 µM and the TGI (U251 CNS) was over 100 µM. For the same compound, the TGI (SK-MEL-2 melanoma) was over 100 µM.

C=CCCCCCCCCCOC1C=CC(OC(C)=O)C(COC(C)=O)O1 (stereo not given) showed a TGI (TK-10 renal) of over 100 µM, a TGI (SN12C renal) of over 100 µM and a TGI (MCF7 breast) of over 100 µM. For the same compound, the TGI (OVCAR-3 ovarian) was over 100 µM, the TGI (HT29 colon) was 48.1 µM and the TGI (M14 melanoma) was 88.9 µM. The TGI (IGROV1 ovarian) was over 100 µM, the TGI (NCI/ADR-RES ovarian) was over 100 µM and the TGI (U251 CNS) was over 100 µM. For the same compound, the TGI (SK-MEL-2 melanoma) was over 100 µM.

In the case of CC(=O)OCC1OC(O/C=C(\CN=[N+]=[N-])C(C)=O)C(OC(C)=O)C(OC(C)=O)C1OC(C)=O (stereo not given), the TGI (TK-10 renal) is reported as 19.1 µM, the TGI (SN12C renal) is reported as 29.5 µM and the TGI (MCF7 breast) is reported as 28 µM. The TGI (OVCAR-3 ovarian) was 28.7 µM, the TGI (HT29 colon) was 27.2 µM and the TGI (M14 melanoma) was 23.1 µM. It also gave a TGI (IGROV1 ovarian) of 39.2 µM, a TGI (NCI/ADR-RES ovarian) of over 100 µM and a TGI (U251 CNS) of 26.8 µM. It also gave a TGI (SK-MEL-2 melanoma) of 37.2 µM.

CC(=O)NC(Cc1ccc(OP(=O)(OCc2ccc([N+](=O)[O-])o2)N(C)CCCCCl)cc1)C(=O)NC(C)c1ccc(OCC2CCCCC2)c(C(N)=O)c1 (stereo not given) gave a TGI (TK-10 renal) of 32 µM, a TGI (SN12C renal) of 6.53 µM and a TGI (MCF7 breast) of 5.23 µM. The TGI (OVCAR-3 ovarian) was 5.04 µM, the TGI (HT29 colon) was 4.83 µM and the TGI (M14 melanoma) was 5.49 µM. For the same compound, the TGI (IGROV1 ovarian) was 7.01 µM, the TGI (NCI/ADR-RES ovarian) was over 100 µM and the TGI (U251 CNS) was 6.49 µM. The TGI (SK-MEL-2 melanoma) was 9.2 µM.

With Clc1nc(Cl)c(CBr)c(Cl)n1 the TGI (TK-10 renal) was 16.9 µM, the TGI (SN12C renal) was 6.79 µM and the TGI (MCF7 breast) was 26 µM. The TGI (OVCAR-3 ovarian) was 13.3 µM, the TGI (HT29 colon) was 32.9 µM and the TGI (M14 melanoma) was 8.38 µM. The TGI (IGROV1 ovarian) was 14.1 µM, the TGI (NCI/ADR-RES ovarian) was over 43.2 µM and the TGI (U251 CNS) was 14.6 µM. The TGI (SK-MEL-2 melanoma) was 43.1 µM.

For Cc1nc2ccccc2n1Cc1nnc(N)o1, the TGI (TK-10 renal) was over 100 µM, the TGI (SN12C renal) was over 100 µM and the TGI (MCF7 breast) was over 100 µM. The TGI (OVCAR-3 ovarian) was over 100 µM, the TGI (HT29 colon) was over 100 µM and the TGI (M14 melanoma) was over 100 µM. For the same compound, the TGI (IGROV1 ovarian) was over 100 µM, the TGI (NCI/ADR-RES ovarian) was over 100 µM and the TGI (U251 CNS) was over 100 µM. For the same compound, the TGI (SK-MEL-2 melanoma) was over 100 µM.

In the case of c1ccc(C(CCN2CC3CCC(CC3)C2)c2ccccc2)cc1, the TGI (TK-10 renal) is reported as 72.7 µM, the TGI (SN12C renal) is reported as 84.7 µM and the TGI (MCF7 breast) is reported as 29 µM. For the same compound, the TGI (OVCAR-3 ovarian) was 44.3 µM, the TGI (HT29 colon) was 48.4 µM and the TGI (M14 melanoma) was 27.3 µM. For the same compound, the TGI (IGROV1 ovarian) was over 100 µM, the TGI (NCI/ADR-RES ovarian) was 58.3 µM and the TGI (U251 CNS) was 35.1 µM. The TGI (SK-MEL-2 melanoma) was 37.8 µM.

Compound CC12CCC(C(Nc3ccccn3)C1=O)C2(C)C (stereo not given) has a TGI (TK-10 renal) of over 100 µM, a TGI (SN12C renal) of over 100 µM and a TGI (MCF7 breast) of over 100 µM. The TGI (OVCAR-3 ovarian) was over 100 µM, the TGI (HT29 colon) was over 100 µM and the TGI (M14 melanoma) was over 100 µM. For the same compound, the TGI (IGROV1 ovarian) was over 100 µM, the TGI (NCI/ADR-RES ovarian) was over 100 µM and the TGI (U251 CNS) was over 100 µM. For the same compound, the TGI (SK-MEL-2 melanoma) was over 100 µM.

Nn1c(Cc2ccccc2)n[nH]c1=O gave a TGI (TK-10 renal) of over 100 µM, a TGI (SN12C renal) of over 100 µM and a TGI (MCF7 breast) of over 100 µM. It also gave a TGI (OVCAR-3 ovarian) of over 100 µM, a TGI (HT29 colon) of over 100 µM and a TGI (M14 melanoma) of over 100 µM. For the same compound, the TGI (IGROV1 ovarian) was over 100 µM, the TGI (NCI/ADR-RES ovarian) was over 100 µM and the TGI (U251 CNS) was over 100 µM. For the same compound, the TGI (SK-MEL-2 melanoma) was over 100 µM.

Work on O=c1cc(N=Nc2ccc(Cl)cc2)[nH]c(=O)[nH]1 yielded a TGI (TK-10 renal) of 13.5 µM, a TGI (SN12C renal) of 9.45 µM and a TGI (MCF7 breast) of 22.8 µM. The TGI (OVCAR-3 ovarian) was 9.53 µM, the TGI (HT29 colon) was 5.44 µM and the TGI (M14 melanoma) was 9.19 µM. It also gave a TGI (IGROV1 ovarian) of 8.92 µM, a TGI (NCI/ADR-RES ovarian) of 12.5 µM and a TGI (U251 CNS) of 12.6 µM. It also gave a TGI (SK-MEL-2 melanoma) of 21.5 µM.

Work on Oc1cccc(-c2cn3cc(C(F)(F)F)ccc3n2)c1 yielded a TGI (TK-10 renal) of 73.3 µM, a TGI (SN12C renal) of over 100 µM and a TGI (MCF7 breast) of over 100 µM. The TGI (OVCAR-3 ovarian) was 86.7 µM, the TGI (HT29 colon) was 60.8 µM and the TGI (M14 melanoma) was over 100 µM. It also gave a TGI (IGROV1 ovarian) of over 100 µM, a TGI (NCI/ADR-RES ovarian) of 78.1 µM and a TGI (U251 CNS) of over 100 µM. For the same compound, the TGI (SK-MEL-2 melanoma) was over 100 µM.

CCN1CCC(O)(c2ccc(Oc3ccc(C)cc3)cc2)C(C(=O)c2ccc(Oc3ccc(C)cc3)cc2)C1 (stereo not given) was tested, and the TGI (TK-10 renal) was 20.8 µM, the TGI (SN12C renal) was 30.7 µM and the TGI (MCF7 breast) was 8.41 µM. The TGI (OVCAR-3 ovarian) was 36.9 µM, the TGI (HT29 colon) was 14.2 µM and the TGI (M14 melanoma) was 30.6 µM. The TGI (IGROV1 ovarian) was 25 µM, the TGI (NCI/ADR-RES ovarian) was 28.2 µM and the TGI (U251 CNS) was 23.7 µM. It also gave a TGI (SK-MEL-2 melanoma) of 35.9 µM.

O=C1c2ccccc2-c2nc(/C=C/c3ccccc3)cc3c2c1nc1ccccc13 showed a TGI (TK-10 renal) of over 100 µM, a TGI (SN12C renal) of over 100 µM and a TGI (MCF7 breast) of over 100 µM. It also gave a TGI (OVCAR-3 ovarian) of 3.95 µM, a TGI (HT29 colon) of 92 µM and a TGI (M14 melanoma) of over 100 µM. For the same compound, the TGI (IGROV1 ovarian) was over 100 µM, the TGI (NCI/ADR-RES ovarian) was over 100 µM and the TGI (U251 CNS) was 57 µM. It also gave a TGI (SK-MEL-2 melanoma) of over 100 µM.
